US20260199284A1, “SPECIFIC VASH COMPOUNDS (SVC) INHIBITORS FOR HEART DISEASES” (MT ACT, priority 2023, published 2026)

Tested on: primary cardiomyocytes isolated from Sprague Dawley rats
Assay: Western blot of detyrosinated tubulin in primary cardiomyocytes
Type: cell-based, rat
Protocol: A) Representative western blot and B) quantification of detyrosinated and alpha-tubulin levels after 2 hrs 37° C. incubation of freshly isolated adult rat cardiomyocytes with compound SVC_01 at indicated concentrations. N=4 Sprague Dawley rats.
Primary adult ventricular cardiac myocytes were isolated from 6 to 8 weeks old Sprague Dawley rats or 20 to 30 weeks old WKY, ZSF1 lean and obese rats. Briefly, the heart was removed from a rat anesthetized under isoflurane and retrograde-perfused on a Langendorff apparatus with a collagenase solution. The digested heart was then minced and triturated using a glass pipette. The resulting supernatant was separated and centrifuged at 300 revolution per minute (rpm) to isolate cardiomyocytes which were then resuspended in rat cardiomyocyte media at low density. Cardiomyocytes were cultured at 37° C. and 5% CO2 with 25 μmol/L of cytochalasin D. Rat cardiomyocyte media: medium 199 (Thermo Fisher 115090) supplemented with 1× Insulin-transferrin-selenium-X (Gibco 51500056), 1 μg μl^−1 primocin (Invivogen ant-pm-1), 20 mmol/L HEPES at pH 7.4 and 25 μmol/L cytochalasin D.
For whole cell protein extraction, isolated rat cardiomyocytes were lysed in RIPA buffer (Cayman #10010263) supplemented with protease and phosphatase Inhibitor cocktail (Cell Signaling #5872S) on ice for 1 hour. […] All samples were run in duplicates and analyzed in reference to GAPDH.

O=C(O)CCC[C@H](NC(=O)[C@H]1O[C@@H]1C(=O)C[C@@H](Cc1ccc(OCc2ccccc2)cc1)C(=O)O)C(=O)NCCc1ccccc1 [SVC_01]
reduction of tubulin detyrosination (2 hours incubation, Sprague Dawley rat cardiomyocytes): ~80%
reduction in detyrosination (2 hrs 37° C., indicated concentrations): Dose-dependent reduction in detyrosination
